{"source": "patent US10104889B2", "about": "(priority 2011, dated 2018)", "system": "Candidatus ‘Liberibacter asiaticus’", "assay_type": "in vivo", "conditions": "1 μM, all tested variants, monthly until sixth month, FIG. 6", "data": [{"smiles": "C[C@@H]1CC[C@@]2(OC1)O[C@H]1C[C@H]3[C@@H]4CC[C@H]5CC(O)CC[C@]5(C)[C@H]4OC(=O)C[C@]3(C)[C@H]1[C@@H]2C", "note": "(stereo partly drawn) [brassinosteroid analogue, (25R)-3-hydroxy-C-homo-11-oxa-5-espirostan-12-one]", "values": [{"measurement": "bacterial reduction at application frequencies 1, 2 and 4 times per month", "value": "bacterial reduction was observed"}]}]}
